Measurements published in ChEMBL document CHEMBL3885861, “Open TG-GATES”.

Species on record: Rattus norvegicus
Test: Open TG-GATES - Regimen: Single
Type: toxicity, organism-based, Sprague-Dawley
Parameters: regimen Single, gender Male, age 6 weeks
Details: in vivo, po, 0 mg/kg, route gavage, dose level Control; for APTT / Bas / Eos / Fbg / Hb / Ht / Lym / MCH / MCHC / MCV / Mono / Neu / PT / Plat / RBC / Ret / WBC: tissue Blood; for KIDNEY_L / KIDNEY_R / KIDNEY_TOTAL: tissue Kidney; for LIVER: tissue Liver; for A/G / ALP / ALT / AST / BUN / CRE / Ca / Cl / DBIL / GLC / IP / K / LDH / Na / PL / RALB / TBIL / TC / TG / TP / gamma-GTP: tissue Plasma

With CN(C)[C@@H]1C(O)=C(C(N)=O)C(=O)[C@@]2(O)C(O)=C3C(=O)c4c(O)cccc4[C@@](C)(O)[C@H]3C[C@@H]12 [TETRACYCLINE] the TERMINAL_BW (3 h) was 187 g, the APTT (3 h) was 16.4 s and the Bas (3 h) was 0%. It also gave an Eos (3 h) of 0.6%, a Fbg (3 h) of 206.2 mg/dL and a Hb (3 h) of 13.1 g/dL. The Ht (3 h) was 39.4%, the Lym (3 h) was 78.4% and the MCH (3 h) was 22 pg. It also gave an MCHC (3 h) of 33.1%, an MCV (3 h) of 66.3 fL and a Mono (3 h) of 8.6%. For the same compound, the Neu (3 h) was 12.8%, the PT (3 h) was 12.1 s and the Plat (3 h) was 105.5 x10_4/uL. For the same compound, the RBC (3 h) was 595.2 x10_4/ul, the Ret (3 h) was 11% and the WBC (3 h) was 95.1 x10_2/uL. It also gave a KIDNEY_L (3 h) of 0.9 g, a KIDNEY_R (3 h) of 0.9 g and a KIDNEY_TOTAL (3 h) of 1.8 g. It also gave an LIVER (3 h) of 9 g, an A/G (3 h) of 2.2 and an ALP (3 h) of 813 IU/L. It also gave an ALT (3 h) of 35.8 IU/L, an AST (3 h) of 70.8 IU/L and a BUN (3 h) of 12.6 mg/dL. For the same compound, the CRE (3 h) was 0.5 mg/dL, the Ca (3 h) was 11.1 mg/dL and the Cl (3 h) was 103.6 meq/L. It also gave a DBIL (3 h) of 0.02 mg/dL, a GLC (3 h) of 187.8 mg/dL and an IP (3 h) of 10.2 mg/dL. It also gave a K (3 h) of 5.2 meq/L, an LDH (3 h) of 87.6 IU/L and a Na (3 h) of 137.6 meq/L. The PL (3 h) was 143.2 mg/dL, the RALB (3 h) was 3.7 g/dL and the TBIL (3 h) was 0.4 mg/dL. For the same compound, the TC (3 h) was 84 mg/dL, the TG (3 h) was 42.4 mg/dL and the TP (3 h) was 5.4 g/dL. For the same compound, the gamma-GTP (3 h) was 1.4 IU/L, the TERMINAL_BW (6 h) was 181.3 g and the APTT (6 h) was 16.7 s. For the same compound, the Bas (6 h) was 0%, the Eos (6 h) was 0.8% and the Fbg (6 h) was 200.2 mg/dL. The Hb (6 h) was 13.1 g/dL, the Ht (6 h) was 39.1% and the Lym (6 h) was 81.6%. The MCH (6 h) was 22 pg, the MCHC (6 h) was 33.4% and the MCV (6 h) was 65.9 fL. For the same compound, the Mono (6 h) was 5.2%, the Neu (6 h) was 13% and the PT (6 h) was 12.3 s. For the same compound, the Plat (6 h) was 101.8 x10_4/uL, the RBC (6 h) was 593.8 x10_4/ul and the Ret (6 h) was 10.7%. It also gave a WBC (6 h) of 118.1 x10_2/uL, a KIDNEY_L (6 h) of 0.8 g and a KIDNEY_R (6 h) of 0.8 g. For the same compound, the KIDNEY_TOTAL (6 h) was 1.7 g, the LIVER (6 h) was 8.3 g and the A/G (6 h) was 2.2. It also gave an ALP (6 h) of 900.4 IU/L, an ALT (6 h) of 36.2 IU/L and an AST (6 h) of 68.8 IU/L. The BUN (6 h) was 9 mg/dL, the CRE (6 h) was 0.4 mg/dL and the Ca (6 h) was 10.6 mg/dL. The Cl (6 h) was 105.2 meq/L, the DBIL (6 h) was 0.018 mg/dL and the GLC (6 h) was 180 mg/dL. It also gave an IP (6 h) of 10.5 mg/dL, a K (6 h) of 5.2 meq/L and an LDH (6 h) of 77.6 IU/L. The Na (6 h) was 136.4 meq/L, the PL (6 h) was 130.4 mg/dL and the RALB (6 h) was 3.7 g/dL. It also gave a TBIL (6 h) of 0.3 mg/dL, a TC (6 h) of 76 mg/dL and a TG (6 h) of 36 mg/dL. It also gave a TP (6 h) of 5.3 g/dL, a gamma-GTP (6 h) of 1.2 IU/L and a TERMINAL_BW (9 h) of 179.4 g. It also gave an APTT (9 h) of 16.9 s, a Bas (9 h) of 0% and an Eos (9 h) of 0.6%. It also gave a Fbg (9 h) of 211.6 mg/dL, a Hb (9 h) of 13.3 g/dL and a Ht (9 h) of 40.3%. The Lym (9 h) was 78%, the MCH (9 h) was 21.7 pg and the MCHC (9 h) was 33%. It also gave an MCV (9 h) of 65.7 fL, a Mono (9 h) of 6.2% and a Neu (9 h) of 15.4%. The PT (9 h) was 12.8 s, the Plat (9 h) was 98.9 x10_4/uL and the RBC (9 h) was 613.2 x10_4/ul. The Ret (9 h) was 9.1%, the WBC (9 h) was 72 x10_2/uL and the KIDNEY_L (9 h) was 0.9 g. The KIDNEY_R (9 h) was 0.9 g, the KIDNEY_TOTAL (9 h) was 1.8 g and the LIVER (9 h) was 7.5 g. For the same compound, the A/G (9 h) was 2.3, the ALP (9 h) was 844.2 IU/L and the ALT (9 h) was 32.6 IU/L. It also gave an AST (9 h) of 64.2 IU/L, a BUN (9 h) of 10.6 mg/dL and a CRE (9 h) of 0.4 mg/dL. It also gave a Ca (9 h) of 10.4 mg/dL, a Cl (9 h) of 106.2 meq/L and a DBIL (9 h) of 0.024 mg/dL. It also gave a GLC (9 h) of 176.4 mg/dL, an IP (9 h) of 10.6 mg/dL and a K (9 h) of 5.3 meq/L. It also gave an LDH (9 h) of 81.2 IU/L, a Na (9 h) of 138.8 meq/L and a PL (9 h) of 123.6 mg/dL. For the same compound, the RALB (9 h) was 3.8 g/dL, the TBIL (9 h) was 0.3 mg/dL and the TC (9 h) was 71.2 mg/dL. The TG (9 h) was 23.6 mg/dL, the TP (9 h) was 5.5 g/dL and the gamma-GTP (9 h) was 1.4 IU/L. It also gave a TERMINAL_BW (24 h) of 200.1 g, an APTT (24 h) of 16.6 s and a Bas (24 h) of 0%. The Eos (24 h) was 0.8%, the Fbg (24 h) was 205.2 mg/dL and the Hb (24 h) was 13.2 g/dL. For the same compound, the Ht (24 h) was 39.7%, the Lym (24 h) was 76.6% and the MCH (24 h) was 22.1 pg. It also gave an MCHC (24 h) of 33.2%, an MCV (24 h) of 66.7 fL and a Mono (24 h) of 8.2%. For the same compound, the Neu (24 h) was 14.8%, the PT (24 h) was 11.9 s and the Plat (24 h) was 112.5 x10_4/uL. The RBC (24 h) was 596.4 x10_4/ul, the Ret (24 h) was 9.8% and the WBC (24 h) was 81.9 x10_2/uL. It also gave a KIDNEY_L (24 h) of 0.9 g, a KIDNEY_R (24 h) of 0.9 g and a KIDNEY_TOTAL (24 h) of 1.8 g. It also gave an LIVER (24 h) of 10.2 g, an A/G (24 h) of 2.3 and an ALP (24 h) of 1007 IU/L. For the same compound, the ALT (24 h) was 45.4 IU/L, the AST (24 h) was 76.6 IU/L and the BUN (24 h) was 17.4 mg/dL. It also gave a CRE (24 h) of 0.5 mg/dL, a Ca (24 h) of 11.1 mg/dL and a Cl (24 h) of 105.2 meq/L. The DBIL (24 h) was 0.008 mg/dL, the GLC (24 h) was 188.6 mg/dL and the IP (24 h) was 9 mg/dL. The K (24 h) was 4.9 meq/L, the LDH (24 h) was 87.6 IU/L and the Na (24 h) was 140.2 meq/L. For the same compound, the PL (24 h) was 155 mg/dL, the RALB (24 h) was 3.9 g/dL and the TBIL (24 h) was 0.4 mg/dL. The TC (24 h) was 84.2 mg/dL, the TG (24 h) was 69.2 mg/dL and the TP (24 h) was 5.7 g/dL. For the same compound, the gamma-GTP (24 h) was 0.8 IU/L.
